Values of other authors as cited in patent US20250345315A1, “Dispenseable formulation for active pharmaceutical ingredients” (CurifyLabs Oy, priority 2024, published 2025).
Where a name gives a salt, the structure may show the parent alone.

Settings: permeability/solubility class per ICH M9 guideline

Row | Compound | Class
1 | CC(C)NCC(O)COc1ccc(COCCOC(C)C)cc1 (centres unmarked) [Bisoprolol fumarate] | I
2 | CC(C)NCC(O)COc1cccc2ccccc12 (centres unmarked) [Propranolol HCl] | I
3 | CC(=O)Oc1ccccc1C(=O)O [Acetylsalicylic acid] | I
4 | C[C@]12C=CC(=O)C=C1CC[C@@H]1[C@@H]2[C@@H](O)C[C@@]2(C)[C@H]1CC[C@]2(O)C(=O)CO [Prednisolone] | I
5 | CC(=O)Nc1ccc(O)cc1 [Paracetamol] | I
